Experiments:
[1] = system: Broccoli run-off transcript of the 251 bp T7 promoter-O1-Broccoli template (RNA, aptamer) GGCAAUUGUGAGCGGAUAACAAUUCUAGAUUGCCAUGUGUAUGUGGGAGACGGUCGGGUCCAGAUAUUCGUAUCUGUCGAGUAGAGUGUGGGCUCCCACAUACUCUGAUGAUCCUUCGGGAUCAUUCAUGGCAAGGAUCCG; test: fluorescence turn-on during in vitro transcription; details: 25 mM NaCl, 8 mM MgCl2; 40 mM Tris-HCl pH 8.0, 2 mM spermidine, 5 mM DTT, 34 °C, 20 μM dye; NTPs, T7 RNAP present
[2] = system: 2xF30-Broccoli RNA (Bi), transcript of T7 promoter-Broccoli template without operator (RNA, aptamer) UUGCCAUGUGUAUGUGGGAGACGGUCGGGUCCAGAUAUUCGUAUCUGUCGAGUAGAGUGUGGGCUCCCACAUACUCUGAUGAUCCUUCGGGAUCAUUCAUGGCAA; test: fluorescence turn-on during in vitro transcription; details: 25 mM NaCl, 8 mM MgCl2; 40 mM Tris-HCl pH 8.0, 2 mM spermidine, 5 mM DTT, 34 °C, 20 μM dye; NTPs, T7 RNAP present

- binding [1]: yes
- binding [2]: yes
Compound: CC1=N/C(=C\c2cc(F)c(O)c(F)c2)C(=O)N1CC(F)(F)F
